Values quoted from earlier work as cited in patent US6387915B2, “Isoxazole-sulfonamide endothelin antagonists” (Pfizer Inc., priority 2000, dated 2002).

How the values were obtained:
[1] = in man; Hypertension (1999) 33, 581-585
[2] = hypertensive patients; H. Krum et al., New Eng. J. Med. (1998) 338, 784-790
neointimal formation = conditions: S. Douglas et al., Circ. Res, 75, 1994

## CCCC[C@@H](NC(=O)[C@@H](Cc1cn(C(=O)OC)c2ccccc12)NC(=O)[C@H](CC(C)(C)C)NC(=O)N1[C@H](C)CCC[C@@H]1C)C(=O)O [BQ-788]
[1]
  effect on peripheral resistance: increase peripheral resistance

## COc1ccccc1Oc1c(NS(=O)(=O)c2ccc(C(C)(C)C)cc2)nc(-c2ncccn2)nc1OCCO [Bosentan]
[2]
  effect on blood pressure: decreased blood pressure

## CCCOc1ccc2c(c1)[C@@H](c1ccc(OC)cc1OCC(=O)O)[C@H](C(=O)O)[C@H]2c1ccc2c(c1)OCO2 [SB-209670]
Neointimal formation
  reduction in neointimal formation relative to control animals: 50%
